Measured values taken from US12077503B2, “Substituted cyclic amides and their use as herbicides” (FMC CORPORATION, priority 2015, dated 2024).

How the values were obtained:
Format in all cases: in vivo
[1] = tested on: pigweed (Amaranthus retroflexus); test: Test A preemergence; details: for Plant response rating, Pigweed: 125 g ai/ha; for Pigweed plant response rating (0 to 100 scale, 0 is no effect, 100 is complete control): 500 g ai/ha, visual injury approx. 10 d
Kochia (Kochia scoparia) [2] = test: Test A preemergence; details: for Plant response rating, Kochia: 125 g ai/ha; for Kochia plant response rating (0 to 100 scale, 0 is no effect, 100 is complete control): 500 g ai/ha, visual injury approx. 10 d
How it was run: (§1)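 Ratings of 0 (no effect) to 100 (complete control) come from visual comparison with untreated controls roughly 10 d after treatment. Test chemicals, formulated in a non-phytotoxic solvent mixture with surfactant, were applied either as a preemergence directed soil spray on seeded soil or postemergence to one- to two-leaf plants 2 to 10 cm tall.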

[3] = tested on: ragweed (common ragweed, Ambrosia elatior); test: Test A preemergence; details: for Plant response rating, Ragweed: 125 g ai/ha; for Ragweed plant response rating (0 to 100 scale, 0 is no effect, 100 is complete control): 500 g ai/ha, visual injury approx. 10 d
How it was run: as §1

[4] = tested on: barnyardgrass (Echinochloa crus-galli); test: Test A preemergence; details: for Plant response rating, Barnyardgrass: 125 g ai/ha; for Barnyardgrass plant response rating (0 to 100 scale, 0 is no effect, 100 is complete control): 500 g ai/ha, visual injury approx. 10 d
How it was run: as §1

[5] = tested on: ryegrass, Italian (Italian ryegrass, Lolium multiflorum); test: Test A preemergence; details: for Plant response rating, Ryegrass, Italian: 125 g ai/ha; for Ryegrass, Italian plant response rating (0 to 100 scale, 0 is no effect, 100 is complete control): 500 g ai/ha, visual injury approx. 10 d
How it was run: as §1

[6] = tested on: giant foxtail (Setaria faberii); test: Test A preemergence; details: for Plant response rating, Foxtail, Giant: 125 g ai/ha; for Foxtail, Giant plant response rating (0 to 100 scale, 0 is no effect, 100 is complete control): 500 g ai/ha, visual injury approx. 10 d
How it was run: as §1

[7] = tested on: Galium (catchweed bedstraw, Galium aparine); test: Test A postemergence; details: for Galium plant response rating: 125 g ai/ha, visual injury rating on 0 to 100 scale (0 no effect, 100 complete control), approx. 10 d; for Plant response rating, Galium: 500 g ai/ha
How it was run: as §1

[8] = tested on: wheat (Triticum aestivum); test: Test A postemergence; details: for Wheat plant response rating: 125 g ai/ha, visual injury rating on 0 to 100 scale (0 no effect, 100 complete control), approx. 10 d; for Plant response rating, Wheat: 500 g ai/ha
How it was run: as §1

[9] = tested on: pigweed (Amaranthus retroflexus); test: Test A postemergence; details: for Pigweed plant response rating: 125 g ai/ha, visual injury rating on 0 to 100 scale (0 no effect, 100 complete control), approx. 10 d; for Plant response rating, Pigweed: 500 g ai/ha
How it was run: as §1

[10] = tested on: blackgrass (Alopecurus myosuroides); test: Test A postemergence; details: for Blackgrass plant response rating: 125 g ai/ha, visual injury rating on 0 to 100 scale (0 no effect, 100 complete control), approx. 10 d; for Plant response rating, Blackgrass: 500 g ai/ha
How it was run: as §1

Kochia (Kochia scoparia) [11] = test: Test A postemergence; details: for Kochia plant response rating: 125 g ai/ha, visual injury rating on 0 to 100 scale (0 no effect, 100 complete control), approx. 10 d; for Plant response rating, Kochia: 500 g ai/ha
How it was run: as §1

[12] = tested on: ragweed (common ragweed, Ambrosia elatior); test: Test A postemergence; details: for Ragweed plant response rating: 125 g ai/ha, visual injury rating on 0 to 100 scale (0 no effect, 100 complete control), approx. 10 d; for Plant response rating, Ragweed: 500 g ai/ha
How it was run: as §1

[13] = tested on: barnyardgrass (Echinochloa crus-galli); test: Test A postemergence; details: for Barnyardgrass plant response rating: 125 g ai/ha, visual injury rating on 0 to 100 scale (0 no effect, 100 complete control), approx. 10 d; for Plant response rating, Barnyardgrass: 500 g ai/ha
How it was run: as §1

[14] = tested on: ryegrass, Italian (Italian ryegrass, Lolium multiflorum); test: Test A postemergence; details: for Ryegrass, Italian plant response rating: 125 g ai/ha, visual injury rating on 0 to 100 scale (0 no effect, 100 complete control), approx. 10 d; for Plant response rating, Ryegrass, Italian: 500 g ai/ha
How it was run: as §1

[15] = tested on: giant foxtail (Setaria faberii); test: Test A postemergence; details: for Foxtail, Giant plant response rating: 125 g ai/ha, visual injury rating on 0 to 100 scale (0 no effect, 100 complete control), approx. 10 d; for Plant response rating, Foxtail, Giant: 500 g ai/ha
How it was run: as §1

corn (Zea mays) = test: Test A postemergence; details: for Corn plant response rating: 125 g ai/ha, visual injury rating on 0 to 100 scale (0 no effect, 100 complete control), approx. 10 d; for Plant response rating, Corn: 500 g ai/ha
How it was run: as §1

[16] = tested on: sedge, umbrella (small-flower umbrella sedge, Cyperus difformis); test: Test B flooded paddy test; details: Flood, 250 g ai/ha; 0 to 100 scale where 0 is no effect and 100 is complete control; 13 to 15 d
How it was run: (§2)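 Visual ratings (0 none to 100 complete control) are relative to untreated plants, taken 13–15 d after treatment in a greenhouse. Test material went straight into floodwater standing 3 cm above the soil, kept constant, on plants at the 2-leaf stage.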

[17] = tested on: ducksalad (Heteranthera limosa); test: Test B flooded paddy test; details: Flood, 250 g ai/ha; 0 to 100 scale where 0 is no effect and 100 is complete control; 13 to 15 d
How it was run: as §2

[18] = tested on: barnyardgrass (Echinochloa crus-galli); test: Test B flooded paddy test; details: Flood, 250 g ai/ha; 0 to 100 scale where 0 is no effect and 100 is complete control; 13 to 15 d
How it was run: as §2

rice (Oryra sativa) = test: Test B flooded paddy test; details: Flood, 250 g ai/ha; 0 to 100 scale where 0 is no effect and 100 is complete control; 13 to 15 d
How it was run: as §2

[19] = Preemergence, visual injury after approximately 10 d, 0 to 100 scale where 0 is no effect and 100 is complete control
[20] = Postemergence, 0 to 100 scale where 0 is no effect and 100 is complete control
[21] = preemergence, 0 to 100 scale (0 no effect, 100 complete control)
[22] = postemergence, 0 to 100 scale, 0 no effect, 100 complete control

SMILES	Pigweed plant response rating (0 to 100 scale, 0 is no effect, 100 is complete control) ([1]; Preemergence)	Kochia plant response rating (0 to 100 scale, 0 is no effect, 100 is complete control) (Kochia (Kochia scoparia) [2]; Preemergence)	Ragweed plant response rating (0 to 100 scale, 0 is no effect, 100 is complete control) ([3]; Preemergence)	Barnyardgrass plant response rating (0 to 100 scale, 0 is no effect, 100 is complete control) ([4]; Preemergence)	Ryegrass, Italian plant response rating (0 to 100 scale, 0 is no effect, 100 is complete control) ([5]; Preemergence)	Foxtail, Giant plant response rating (0 to 100 scale, 0 is no effect, 100 is complete control) ([6]; Preemergence)	Galium plant response rating ([7]; postemergence)	Wheat plant response rating ([8]; postemergence)	Pigweed plant response rating ([9]; postemergence)	Blackgrass plant response rating ([10]; postemergence)	Kochia plant response rating (Kochia (Kochia scoparia) [11]; postemergence)	Ragweed plant response rating ([12]; postemergence)	Barnyardgrass plant response rating ([13]; postemergence)	Ryegrass, Italian plant response rating ([14]; postemergence)	Foxtail, Giant plant response rating ([15]; postemergence)	Corn plant response rating (corn (Zea mays); postemergence)	Plant response rating, Sedge, Umbrella [16]	Plant response rating, Ducksalad [17]	Plant response rating, Barnyardgrass [18]	Plant response rating, Rice (rice (Oryra sativa))	also measured
O=C1NCC(c2ccc(C(F)(F)F)c(F)c2)C1C(=O)Nc1ccccc1F (racemic) [Compound 521]	70	70	60	90	50	90	50	20	40	30	0	0	90	20	70	30	0	85	40	0	Plant response rating, Pigweed [1, 19]: 60; Plant response rating, Kochia (Kochia (Kochia scoparia) [2]; [19]): 0; Plant response rating, Ragweed [3, 19]: 40; Plant response rating, Barnyardgrass [4, 19]: 90; Plant response rating, Ryegrass, Italian [5, 19]: 30; Plant response rating, Foxtail, Giant [6, 19]: 90; Plant response rating, Galium [7, 20]: 60; Plant response rating, Wheat [8, 20]: 50; Plant response rating, Pigweed [9, 20]: 50; Plant response rating, Blackgrass [10, 20]: 40; Plant response rating, Kochia (Kochia (Kochia scoparia) [11]; [20]): 20; Plant response rating, Ragweed [12, 20]: 0; Plant response rating, Barnyardgrass [13, 20]: 90; Plant response rating, Ryegrass, Italian [14, 20]: 40; Plant response rating, Foxtail, Giant [15, 20]: 90; Plant response rating, Corn (corn (Zea mays); [20]): 40
Cc1cc(C2CN(C)C(=O)C2C(=O)Nc2cccc(F)c2F)ccc1F (stereo not drawn) [Compound 403]	60	80	60	90	70	90	50	70	50	50	40	0	90	50	90	70	0	100	75	0	Plant response rating, Pigweed [1, 21]: 30; Plant response rating, Kochia (Kochia (Kochia scoparia) [2]; [21]): 70; Plant response rating, Ragweed [3, 21]: 50; Plant response rating, Barnyardgrass [4, 21]: 90; Plant response rating, Ryegrass, Italian [5, 21]: 20; Plant response rating, Foxtail, Giant [6, 21]: 90; Plant response rating, Galium [7, 22]: 60; Plant response rating, Wheat [8, 22]: 80; Plant response rating, Pigweed [9, 22]: 50; Plant response rating, Blackgrass [10, 22]: 60; Plant response rating, Kochia (Kochia (Kochia scoparia) [11]; [22]): 60; Plant response rating, Ragweed [12, 22]: 30; Plant response rating, Barnyardgrass [13, 22]: 90; Plant response rating, Ryegrass, Italian [14, 22]: 70; Plant response rating, Foxtail, Giant [15, 22]: 90; Plant response rating, Corn (corn (Zea mays); [22]): 90
